Experimental data as given in ChEMBL document CHEMBL4507319 (2021).

Key:
[1] = target: Dual specificity mitogen-activated protein kinase kinase 1 (Homo sapiens) (UniProt Q02750); assay: MEK1(h) Eurofins kinase panel; details: Compound concentration 1.0 uM
[2] = target: T1, Protein kinase C epsilon type (Homo sapiens) (UniProt Q02156); assay: PKCepsilon (h) Eurofins kinase panel; details: Compound concentration 1.0 uM
T1 sequence (whole entry): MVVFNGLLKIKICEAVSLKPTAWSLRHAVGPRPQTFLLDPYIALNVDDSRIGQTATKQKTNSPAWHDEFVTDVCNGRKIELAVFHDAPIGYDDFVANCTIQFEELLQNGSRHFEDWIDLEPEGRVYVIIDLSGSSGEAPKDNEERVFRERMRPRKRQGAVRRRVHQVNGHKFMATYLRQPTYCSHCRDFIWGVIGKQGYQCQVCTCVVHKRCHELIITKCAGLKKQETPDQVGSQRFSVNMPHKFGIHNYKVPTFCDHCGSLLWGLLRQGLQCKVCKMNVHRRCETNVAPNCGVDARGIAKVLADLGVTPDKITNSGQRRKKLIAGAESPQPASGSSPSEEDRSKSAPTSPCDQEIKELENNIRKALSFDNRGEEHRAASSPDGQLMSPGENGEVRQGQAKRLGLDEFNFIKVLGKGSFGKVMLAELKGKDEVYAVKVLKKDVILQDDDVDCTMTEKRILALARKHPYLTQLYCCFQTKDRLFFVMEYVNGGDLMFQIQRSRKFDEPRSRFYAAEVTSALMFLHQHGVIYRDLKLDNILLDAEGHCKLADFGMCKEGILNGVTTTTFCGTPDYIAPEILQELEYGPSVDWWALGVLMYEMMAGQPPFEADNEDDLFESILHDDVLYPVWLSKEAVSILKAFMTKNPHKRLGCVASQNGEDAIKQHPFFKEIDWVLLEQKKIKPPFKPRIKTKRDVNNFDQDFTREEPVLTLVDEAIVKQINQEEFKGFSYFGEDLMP

[3] = target: Mitogen-activated protein kinase kinase kinase kinase 1 (Homo sapiens) (UniProt Q92918); assay: HPK1(h) Eurofins kinase panel; details: Compound concentration 1.0 uM
Sequence of Mitogen-activated protein kinase kinase kinase kinase 1 (Homo sapiens) (Q92918 whole entry, looked up): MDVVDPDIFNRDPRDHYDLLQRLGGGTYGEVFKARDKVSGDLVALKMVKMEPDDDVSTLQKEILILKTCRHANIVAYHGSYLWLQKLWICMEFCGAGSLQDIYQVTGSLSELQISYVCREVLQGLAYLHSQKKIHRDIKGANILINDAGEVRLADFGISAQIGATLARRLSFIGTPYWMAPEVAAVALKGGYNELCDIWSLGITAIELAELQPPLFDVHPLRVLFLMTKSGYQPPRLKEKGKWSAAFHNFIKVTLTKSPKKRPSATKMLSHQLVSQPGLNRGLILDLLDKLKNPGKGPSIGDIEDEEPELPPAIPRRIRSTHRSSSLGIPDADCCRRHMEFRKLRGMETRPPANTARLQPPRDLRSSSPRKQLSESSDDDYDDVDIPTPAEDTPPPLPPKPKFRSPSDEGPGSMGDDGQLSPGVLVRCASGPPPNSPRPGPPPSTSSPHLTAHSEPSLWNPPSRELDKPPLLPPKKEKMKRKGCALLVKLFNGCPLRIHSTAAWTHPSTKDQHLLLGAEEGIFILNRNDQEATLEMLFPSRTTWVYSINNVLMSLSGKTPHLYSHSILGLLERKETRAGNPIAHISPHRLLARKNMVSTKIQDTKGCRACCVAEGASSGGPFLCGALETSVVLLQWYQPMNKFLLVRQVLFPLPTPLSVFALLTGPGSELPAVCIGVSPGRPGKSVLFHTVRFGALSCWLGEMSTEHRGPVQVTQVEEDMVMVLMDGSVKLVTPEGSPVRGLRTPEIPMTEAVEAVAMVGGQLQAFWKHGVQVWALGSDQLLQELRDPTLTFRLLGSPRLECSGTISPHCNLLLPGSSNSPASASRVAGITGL

[4] = target: Ribosomal protein S6 kinase alpha-2 (Homo sapiens, UniProt Q15349)
Sequence of Ribosomal protein S6 kinase alpha-2 (Q15349 whole entry): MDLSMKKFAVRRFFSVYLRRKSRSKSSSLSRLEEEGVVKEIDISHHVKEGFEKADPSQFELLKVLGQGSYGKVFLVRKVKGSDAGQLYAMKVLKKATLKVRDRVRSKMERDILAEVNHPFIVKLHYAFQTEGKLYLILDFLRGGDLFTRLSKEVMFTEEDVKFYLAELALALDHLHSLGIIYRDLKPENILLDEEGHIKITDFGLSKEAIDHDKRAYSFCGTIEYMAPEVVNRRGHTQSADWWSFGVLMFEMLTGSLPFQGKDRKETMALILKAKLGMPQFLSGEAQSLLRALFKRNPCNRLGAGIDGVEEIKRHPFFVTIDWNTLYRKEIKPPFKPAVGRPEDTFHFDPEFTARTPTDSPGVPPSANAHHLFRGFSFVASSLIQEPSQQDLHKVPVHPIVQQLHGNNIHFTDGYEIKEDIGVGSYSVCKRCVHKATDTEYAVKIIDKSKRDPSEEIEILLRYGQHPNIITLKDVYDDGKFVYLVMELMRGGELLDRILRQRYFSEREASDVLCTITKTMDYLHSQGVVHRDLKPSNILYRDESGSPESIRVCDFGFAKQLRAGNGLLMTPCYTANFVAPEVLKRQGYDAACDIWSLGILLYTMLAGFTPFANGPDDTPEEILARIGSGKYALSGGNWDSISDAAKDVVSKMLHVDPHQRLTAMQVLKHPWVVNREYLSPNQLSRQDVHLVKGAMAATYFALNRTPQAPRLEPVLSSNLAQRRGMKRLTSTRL

[5] = target: T2, Serine/threonine-protein kinase Sgk1 (Homo sapiens) (UniProt O00141); assay: SGK(h) Eurofins kinase panel; details: Compound concentration 1.0 uM
T2 sequence (whole entry): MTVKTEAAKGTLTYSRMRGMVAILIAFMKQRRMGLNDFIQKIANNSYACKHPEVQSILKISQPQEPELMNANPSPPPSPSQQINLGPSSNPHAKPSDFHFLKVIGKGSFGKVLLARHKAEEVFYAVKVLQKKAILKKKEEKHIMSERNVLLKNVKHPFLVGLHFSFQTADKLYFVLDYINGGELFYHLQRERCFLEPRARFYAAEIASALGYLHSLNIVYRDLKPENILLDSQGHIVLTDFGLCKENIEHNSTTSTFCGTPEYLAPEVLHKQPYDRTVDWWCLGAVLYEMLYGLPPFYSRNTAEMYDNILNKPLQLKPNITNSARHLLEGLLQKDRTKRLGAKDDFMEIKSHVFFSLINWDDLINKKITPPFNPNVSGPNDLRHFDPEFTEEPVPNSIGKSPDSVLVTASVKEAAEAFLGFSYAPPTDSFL

[6] = target: Serine/threonine-protein kinase pim-1 (Homo sapiens) (UniProt P11309); assay: Pim-1(h) Eurofins kinase panel; details: Compound concentration 1.0 uM
Sequence of Serine/threonine-protein kinase pim-1 (Homo sapiens) (P11309 whole entry, looked up): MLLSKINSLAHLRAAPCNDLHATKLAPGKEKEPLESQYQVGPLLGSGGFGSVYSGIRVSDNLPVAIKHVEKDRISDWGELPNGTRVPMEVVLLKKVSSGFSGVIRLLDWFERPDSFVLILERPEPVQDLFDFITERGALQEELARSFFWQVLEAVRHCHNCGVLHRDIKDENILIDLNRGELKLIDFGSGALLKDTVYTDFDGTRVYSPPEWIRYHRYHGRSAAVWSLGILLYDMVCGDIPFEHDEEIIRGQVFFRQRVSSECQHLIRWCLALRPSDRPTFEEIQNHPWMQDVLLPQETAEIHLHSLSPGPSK

[7] = target: Serine/threonine-protein kinase WNK2 (Homo sapiens) (UniProt Q9Y3S1); assay: WNK2(h) Eurofins kinase panel; details: Compound concentration 1.0 uM
[8] = target: T3, Inhibitor of nuclear factor kappa-B kinase subunit alpha (Homo sapiens) (UniProt O15111); assay: IKKalpha(h) Eurofins kinase panel; details: Compound concentration 1.0 uM
T3 sequence (whole entry): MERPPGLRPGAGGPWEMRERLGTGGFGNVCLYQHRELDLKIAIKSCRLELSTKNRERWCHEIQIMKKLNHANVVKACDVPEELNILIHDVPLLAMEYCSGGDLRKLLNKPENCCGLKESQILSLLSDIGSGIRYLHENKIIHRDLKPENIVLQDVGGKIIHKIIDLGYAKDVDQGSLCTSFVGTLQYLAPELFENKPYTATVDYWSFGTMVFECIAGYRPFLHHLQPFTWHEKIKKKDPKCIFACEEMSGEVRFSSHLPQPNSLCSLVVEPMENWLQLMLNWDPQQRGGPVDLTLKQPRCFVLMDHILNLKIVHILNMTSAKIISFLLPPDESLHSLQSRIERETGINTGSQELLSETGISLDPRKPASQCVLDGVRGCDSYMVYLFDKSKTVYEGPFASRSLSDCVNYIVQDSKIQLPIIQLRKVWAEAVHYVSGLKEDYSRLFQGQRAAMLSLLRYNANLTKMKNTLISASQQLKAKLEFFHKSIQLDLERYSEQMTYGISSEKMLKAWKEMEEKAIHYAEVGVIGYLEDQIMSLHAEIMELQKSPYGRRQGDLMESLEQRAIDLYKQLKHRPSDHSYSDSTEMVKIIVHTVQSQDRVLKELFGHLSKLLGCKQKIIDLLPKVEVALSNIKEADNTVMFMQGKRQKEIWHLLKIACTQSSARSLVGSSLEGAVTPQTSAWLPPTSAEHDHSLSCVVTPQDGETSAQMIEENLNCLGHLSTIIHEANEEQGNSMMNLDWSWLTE

[9] = target: Calcium/calmodulin-dependent protein kinase type II subunit beta (Homo sapiens) (UniProt Q13554); assay: CaMKIIbeta(h) Eurofins kinase panel; details: Compound concentration 1.0 uM
[10] = target: Tau-tubulin kinase 1 (Homo sapiens) (UniProt Q5TCY1); assay: TTBK1(h) Eurofins kinase panel; details: Compound concentration 1.0 uM
[11] = test system: OPM-2; assay: OPM-2 cell line Proliferation assay; format: functional, Homo sapiens; details: time 3 day
[12] = target: Tyrosine-protein kinase JAK2 (Homo sapiens) (UniProt O60674); assay: JAK2(h) Eurofins kinase panel; details: Compound concentration 1.0 uM
Sequence of Tyrosine-protein kinase JAK2 (Homo sapiens) (O60674 whole entry): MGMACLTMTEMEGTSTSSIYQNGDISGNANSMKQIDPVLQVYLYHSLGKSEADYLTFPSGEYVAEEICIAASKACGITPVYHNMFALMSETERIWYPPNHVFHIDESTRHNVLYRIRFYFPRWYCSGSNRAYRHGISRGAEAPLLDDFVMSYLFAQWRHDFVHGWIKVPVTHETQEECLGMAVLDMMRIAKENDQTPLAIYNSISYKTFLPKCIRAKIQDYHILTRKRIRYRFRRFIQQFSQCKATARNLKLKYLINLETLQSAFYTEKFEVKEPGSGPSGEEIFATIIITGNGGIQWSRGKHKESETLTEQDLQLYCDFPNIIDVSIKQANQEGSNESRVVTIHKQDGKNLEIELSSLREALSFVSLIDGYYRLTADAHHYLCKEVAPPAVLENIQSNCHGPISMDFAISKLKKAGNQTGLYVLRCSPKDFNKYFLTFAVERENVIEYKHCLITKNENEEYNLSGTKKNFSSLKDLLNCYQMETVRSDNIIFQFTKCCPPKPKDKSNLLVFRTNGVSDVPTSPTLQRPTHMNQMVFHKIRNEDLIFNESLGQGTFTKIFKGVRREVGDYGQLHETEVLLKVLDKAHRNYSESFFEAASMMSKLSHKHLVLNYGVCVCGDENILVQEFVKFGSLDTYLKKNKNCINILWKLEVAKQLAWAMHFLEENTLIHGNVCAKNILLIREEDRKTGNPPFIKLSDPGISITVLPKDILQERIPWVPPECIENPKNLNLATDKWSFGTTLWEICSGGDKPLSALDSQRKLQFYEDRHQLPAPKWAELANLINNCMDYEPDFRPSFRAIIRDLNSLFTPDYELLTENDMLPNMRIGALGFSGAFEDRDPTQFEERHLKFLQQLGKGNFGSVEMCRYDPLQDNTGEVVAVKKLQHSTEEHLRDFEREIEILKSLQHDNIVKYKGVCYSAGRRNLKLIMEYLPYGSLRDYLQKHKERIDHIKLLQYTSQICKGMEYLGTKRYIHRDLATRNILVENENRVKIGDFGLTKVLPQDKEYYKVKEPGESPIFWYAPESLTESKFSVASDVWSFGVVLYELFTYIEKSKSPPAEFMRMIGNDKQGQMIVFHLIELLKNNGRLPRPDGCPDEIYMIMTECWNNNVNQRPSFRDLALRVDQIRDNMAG

[13] = target: cAMP-dependent protein kinase catalytic subunit beta (Homo sapiens) (UniProt P22694); assay: PKAcβ(h) Eurofins kinase panel; details: Compound concentration 1.0 uM
[14] = target: CDK18/Cyclin Y (Homo sapiens) (UniProt Q07002+Q8ND76); assay: CDK18/cyclinY(h) Eurofins kinase panel; format: protein-complex assay; details: Compound concentration 1.0 uM
[15] = target: ATR/ATRIP (Homo sapiens) (UniProt Q13535+Q8WXE1); assay: ATR/ATRIP(h) Eurofins kinase panel; format: protein-complex assay; details: Compound concentration 1.0 uM
[16] = target: Serine/threonine-protein kinase tousled-like 2 (Homo sapiens) (UniProt Q86UE8); assay: TLK2(h) Eurofins kinase panel; details: Compound concentration 1.0 uM
Sequence of Serine/threonine-protein kinase tousled-like 2 (Homo sapiens) (Q86UE8 whole entry, looked up): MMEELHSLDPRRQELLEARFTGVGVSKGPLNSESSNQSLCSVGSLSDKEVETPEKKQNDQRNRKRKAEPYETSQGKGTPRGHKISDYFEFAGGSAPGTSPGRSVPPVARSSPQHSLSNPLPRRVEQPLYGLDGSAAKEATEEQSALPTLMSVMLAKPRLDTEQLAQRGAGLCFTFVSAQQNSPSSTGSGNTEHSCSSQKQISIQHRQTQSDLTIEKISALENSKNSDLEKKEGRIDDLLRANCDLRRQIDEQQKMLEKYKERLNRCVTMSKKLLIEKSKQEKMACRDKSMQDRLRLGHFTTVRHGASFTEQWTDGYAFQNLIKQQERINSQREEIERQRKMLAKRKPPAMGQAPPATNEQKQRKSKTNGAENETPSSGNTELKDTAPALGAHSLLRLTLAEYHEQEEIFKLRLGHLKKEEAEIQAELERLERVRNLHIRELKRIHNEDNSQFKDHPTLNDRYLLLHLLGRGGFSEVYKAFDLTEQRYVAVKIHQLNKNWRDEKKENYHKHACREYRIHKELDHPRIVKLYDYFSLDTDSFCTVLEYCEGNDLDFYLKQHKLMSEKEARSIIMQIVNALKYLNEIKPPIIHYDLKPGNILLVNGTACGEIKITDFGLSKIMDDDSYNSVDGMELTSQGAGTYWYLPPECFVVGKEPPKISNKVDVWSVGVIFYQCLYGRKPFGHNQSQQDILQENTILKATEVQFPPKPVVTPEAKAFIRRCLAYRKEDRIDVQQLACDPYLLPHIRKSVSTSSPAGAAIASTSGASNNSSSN

[17] = target: Calcium/calmodulin-dependent protein kinase type 1B (Homo sapiens) (UniProt Q6P2M8); assay: CaMKIbeta(h) Eurofins kinase panel; details: Compound concentration 1.0 uM
Sequence of Calcium/calmodulin-dependent protein kinase type 1B (Homo sapiens) (Q6P2M8 whole entry): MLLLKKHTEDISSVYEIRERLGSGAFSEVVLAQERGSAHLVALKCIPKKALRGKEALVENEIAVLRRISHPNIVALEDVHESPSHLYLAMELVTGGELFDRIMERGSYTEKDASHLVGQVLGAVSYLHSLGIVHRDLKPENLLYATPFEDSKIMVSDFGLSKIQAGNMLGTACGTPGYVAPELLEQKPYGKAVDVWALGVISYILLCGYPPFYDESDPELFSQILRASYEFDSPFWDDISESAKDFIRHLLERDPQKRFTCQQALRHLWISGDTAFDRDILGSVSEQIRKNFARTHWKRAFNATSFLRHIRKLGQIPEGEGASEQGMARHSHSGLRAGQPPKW

[18] = target: eIF-2-alpha kinase GCN2 (Homo sapiens) (UniProt Q9P2K8); assay: GCN2(h) Eurofins kinase panel; details: Compound concentration 1.0 uM
[19] = target: 5'-AMP-activated protein kinase catalytic subunit alpha-1 (Homo sapiens, UniProt Q13131)
Sequence of 5'-AMP-activated protein kinase catalytic subunit alpha-1 (Q13131 whole entry): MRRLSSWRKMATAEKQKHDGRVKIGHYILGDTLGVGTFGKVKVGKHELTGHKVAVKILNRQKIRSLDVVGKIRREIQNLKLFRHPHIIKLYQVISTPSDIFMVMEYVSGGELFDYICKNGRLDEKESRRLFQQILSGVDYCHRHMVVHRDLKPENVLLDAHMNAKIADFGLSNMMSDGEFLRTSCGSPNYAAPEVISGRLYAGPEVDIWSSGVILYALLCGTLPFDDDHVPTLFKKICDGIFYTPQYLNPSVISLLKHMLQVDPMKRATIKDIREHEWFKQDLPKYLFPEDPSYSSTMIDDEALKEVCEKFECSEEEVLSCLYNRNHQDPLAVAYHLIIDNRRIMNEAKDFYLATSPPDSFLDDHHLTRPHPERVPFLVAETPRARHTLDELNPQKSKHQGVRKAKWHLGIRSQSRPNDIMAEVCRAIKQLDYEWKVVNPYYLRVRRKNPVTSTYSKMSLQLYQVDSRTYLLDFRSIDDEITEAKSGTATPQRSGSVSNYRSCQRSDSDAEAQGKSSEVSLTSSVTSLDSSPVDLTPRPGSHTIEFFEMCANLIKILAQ

CCc1ccccc1C(=O)Nc1n[nH]c2c(C)c(F)c(C3C(C#N)=C(C)N(C)C(C)=C3C#N)cc12 [BAY-3827]
inactive: % residual kinase activity [1] 90% | % residual kinase activity [2] 62% | % residual kinase activity [3] 57% | % residual kinase activity [5] 79% | % residual kinase activity [6] 119% | % residual kinase activity [7] 87% | % residual kinase activity [8] 107% | % residual kinase activity [9] 100% | % residual kinase activity [10] 104% | % residual kinase activity [12] 88% | % residual kinase activity [13] 90% | % residual kinase activity [14] 106% | % residual kinase activity [15] 94% | % residual kinase activity [16] 96% | % residual kinase activity [17] 91% | % residual kinase activity [18] 100%
24 nM: IC50 [4]
1500 nM: Cell Proliferation IC50 [11]
10 nM: IC50 [19]
